Results from patent US20210255193A1, “LYSINE REACTIVE PROBES AND USES THEREOF” (The Scripps Research Institute, priority 2017, published 2021).

Assays:
Test in all cases: direct labeling of recombinantly expressed proteins by gel-based ABPP (WT vs lysine mutant)
Assay type in all cases: binding
GSTO1 = biological target: T1, GSTO1 (Homo sapiens, UniProt P78417); conditions: GSTO1 K57, KR mutant; 10 μM probe, 1 h
T1 construct: expressed in transfected cells; host or cells: HEK 293T
T1 sequence (P78417 1-241): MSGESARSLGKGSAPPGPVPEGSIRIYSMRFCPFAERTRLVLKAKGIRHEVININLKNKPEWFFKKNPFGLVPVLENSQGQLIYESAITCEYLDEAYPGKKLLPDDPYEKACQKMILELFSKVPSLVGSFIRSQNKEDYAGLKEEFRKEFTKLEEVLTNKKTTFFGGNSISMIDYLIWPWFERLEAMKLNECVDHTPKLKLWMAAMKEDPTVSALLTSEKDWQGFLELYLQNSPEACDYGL
Source text: (§1) Subcloning and mutagenesis. Unless noted below, genes were amplified from cDNA prepared from low passage HEK 293T cells using the Ribozol RNA extraction reagent (Amresco) and the iScript Reverse Transcription Supermix kit (Bio-Rad). For the following proteins cDNA clones were used for amplification instead: PFKP (5180268, Dharmacon), HK1 (BC008730, transomic), SIN3A (BC137098, transomic), G6PD (BC000337, transomic) and TGIF1 (BC031268, transomic). Mouse CARM1 in pFLAG-CMV-6c was a kind gift from the Mowen lab (TSRI). NUDT2 was obtained as synthesized gene (IDT). DNA was amplified with custom forward and reverse primers using phusion polymerase (NEB, M0530S), digested with the indicated restriction enzyme and ligated into pFLAG-CMV-6c or pRK5 with the appropriate affinity tag. Lysine mutants were generated using QuikChange site-directed mutagenesis using Phusion® High-Fidelity DNA Polymerase and primers containing the desired mutations and their respective complements. The cloning of TTR and its K35A mutant has been described in Choi et al., “Chemoselective small molecules that covalently modify one lysine in a non-enzyme protein in plasma,” Nat. Chem. Biol. 6, 133-139 (2010). TTR was expressed in E. coli and purified as described. For gel-based experiments 1 μM TTR was added into 1 mg ml^−1 soluble MDA-MB-231 lysate.
(§2) Recombinant expression of proteins by transient transfection. HEK 293T cells were grown to 50% confluency in 10 ml DMEM supplemented with 10% fetal bovine serum (FBS), penicillin, streptomycin and glutamine in 10 cm tissue culture dishes. 3 μg of DNA was diluted in 500 μL DMEM and 30 μL of PEI (MW 40,000, 1 mg ml^−1, Polysciences) were added. The mixture was incubated at room temperature for 30 min and added dropwise to the cells. Cells were grown for 48 h at 37° C. with 5% CO2. Cells were washed with cold PBS, scraped with cold PBS and cell pellets were isolated by centrifugation (1,400 g, 3 min, 4° C.), and stored at −80° C. until use. Cell pellets were resuspended in PBS, lysed by sonication and fractionated (100,000 g, 45 min) to yield soluble and membrane fractions. The soluble fraction was adjusted to a final protein concentration of 1 mg ml^−1 for gel-based ABPP experiments.
(§3) Direct labeling of recombinantly expressed proteins by gel-based ABPP. 50 μL of soluble HEK 293T proteome (1 mg ml^−1) expressing the respective protein (WT or KR mutant) or transfected with an empty vector were treated with 10 μM of the indicated probe for 1 h at room temperature. The samples were analyzed as described in the previous section. For quantification of relative labeling of the different protein variants, the intensity of labeling was determined by quantifying the integrated optical intensity of the bands using ImageLab 5.2.1 software (BioRad).

ADK = biological target: T2, ADK (Homo sapiens, UniProt P55263); conditions: ADK K88, KR mutant; 10 μM probe, 1 h
T2 construct: expressed in transfected cells; host or cells: HEK 293T
T2 sequence (P55263 whole entry): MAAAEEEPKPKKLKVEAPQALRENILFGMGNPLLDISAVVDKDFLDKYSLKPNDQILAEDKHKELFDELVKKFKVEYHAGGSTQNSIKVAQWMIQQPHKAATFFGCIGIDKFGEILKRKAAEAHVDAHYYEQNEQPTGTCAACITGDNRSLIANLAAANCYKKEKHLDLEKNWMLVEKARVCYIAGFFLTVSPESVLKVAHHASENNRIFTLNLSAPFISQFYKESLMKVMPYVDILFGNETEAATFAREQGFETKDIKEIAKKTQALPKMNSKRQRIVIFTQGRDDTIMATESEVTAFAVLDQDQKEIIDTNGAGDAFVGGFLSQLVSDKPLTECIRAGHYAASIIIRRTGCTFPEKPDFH
Source text: as §1, §2, §3

CARM1 = biological target: T3, CARM1 (Mus musculus, UniProt Q9WVG6); conditions: CARM1 K241, KR mutant; 10 μM probe, 1 h
T3 construct: FLAG; expressed in transfected cells; host or cells: HEK 293T
T3 sequence (Q9WVG6 1-608): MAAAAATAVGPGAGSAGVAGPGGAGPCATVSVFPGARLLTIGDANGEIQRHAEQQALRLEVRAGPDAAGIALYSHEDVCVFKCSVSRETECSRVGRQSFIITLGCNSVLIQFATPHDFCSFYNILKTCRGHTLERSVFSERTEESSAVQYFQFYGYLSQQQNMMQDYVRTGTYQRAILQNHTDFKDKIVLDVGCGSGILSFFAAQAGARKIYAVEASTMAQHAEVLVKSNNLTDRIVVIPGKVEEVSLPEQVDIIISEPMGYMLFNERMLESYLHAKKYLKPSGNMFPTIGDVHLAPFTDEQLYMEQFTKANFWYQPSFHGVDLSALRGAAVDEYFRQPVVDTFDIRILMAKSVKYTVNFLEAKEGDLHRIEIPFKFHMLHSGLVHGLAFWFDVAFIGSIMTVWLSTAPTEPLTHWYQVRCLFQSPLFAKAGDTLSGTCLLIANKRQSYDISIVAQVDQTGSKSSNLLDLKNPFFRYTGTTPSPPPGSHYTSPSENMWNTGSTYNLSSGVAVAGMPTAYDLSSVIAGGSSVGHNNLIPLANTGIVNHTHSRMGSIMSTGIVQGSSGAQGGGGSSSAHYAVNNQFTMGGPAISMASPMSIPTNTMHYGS
Source text: as §1, §2, §3

TPMT = biological target: T4, TPMT (Homo sapiens, UniProt P51580); conditions: TPMT K32, KR mutant; 10 μM probe, 1 h
T4 construct: expressed in transfected cells; host or cells: HEK 293T
T4 sequence (P51580 1-245): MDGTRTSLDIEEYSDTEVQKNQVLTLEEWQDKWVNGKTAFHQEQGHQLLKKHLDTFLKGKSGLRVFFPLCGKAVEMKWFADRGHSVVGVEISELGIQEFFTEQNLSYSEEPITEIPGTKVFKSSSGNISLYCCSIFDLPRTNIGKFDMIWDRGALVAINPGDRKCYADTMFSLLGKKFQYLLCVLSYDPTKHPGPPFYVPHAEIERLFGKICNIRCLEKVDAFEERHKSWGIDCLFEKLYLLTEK
Source text: as §1, §2, §3

Compound	labeling of WT vs mutant protein by probe (GSTO1)	labeling of WT vs mutant protein by probe (ADK)	labeling of WT vs mutant protein by probe (CARM1)	labeling of WT vs mutant protein by probe (TPMT)
C#CCCC(=O)Oc1c(F)c(F)c(S(=O)(=O)[O-])c(F)c1F.[Na+] [probe 1, reference compound]	PD (the WT labeled more than the mutant (>2x difference quantified))	PD (the WT labeled more than the mutant (>2x difference quantified))	HD (the WT labeled more than the mutant (>4x difference quantified))	HD (the WT labeled more than the mutant (>4x difference quantified))
C#CCCC(=O)Oc1c(F)c(F)c(F)c(F)c1F [probe 6, Pentafluorophenyl 4-pentynoate]	ND (the WT did not label more than the mutant (<2x difference quantified))		ND (the WT did not label more than the mutant (<2x difference quantified))	ND (the WT did not label more than the mutant (<2x difference quantified))
C#Cc1ccc(C(=O)Oc2ccccc2[N+](=O)[O-])cc1 [probe 10, 2-Nitrophenyl 4-ethynylbenzoate]		HD (the WT labeled more than the mutant (>4x difference quantified))		
C#Cc1ccc(C(=O)Oc2c(F)c(F)cc(F)c2F)cc1 [probe 12, 2,3,5,6-Tetrafluorophenyl 4-ethynylbenzoate]	ND (the WT did not label more than the mutant (<2x difference quantified))	HD (the WT labeled more than the mutant (>4x difference quantified))	ND (the WT did not label more than the mutant (<2x difference quantified))	ND (the WT did not label more than the mutant (<2x difference quantified))
C#Cc1ccc(C(=O)Oc2c(F)c(F)c(F)c(F)c2F)cc1 [probe 13, Pentafluorophenyl 4-ethynylbenzoate]	ND (the WT did not label more than the mutant (<2x difference quantified))	HD (the WT labeled more than the mutant (>4x difference quantified))	ND (the WT did not label more than the mutant (<2x difference quantified))	ND (the WT did not label more than the mutant (<2x difference quantified))
Cc1cc(C)n2c1C=C1C=CC(CCC(=O)Oc3c(F)c(F)c(S(=O)(=O)[O-])c(F)c3F)=[N+]1[B-]2(F)F.[Na+] [probe 18, reference compound]	ND (the WT did not label more than the mutant (<2x difference quantified))	PD (the WT labeled more than the mutant (>2x difference quantified))	PD (the WT labeled more than the mutant (>2x difference quantified))	HD (the WT labeled more than the mutant (>4x difference quantified))
